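Exposure lasted 48 hours, with cells grown in 96-well plates and compounds tested at five concentrations. GI50 marks 50% less growth. TGI marks complete inhibition of growth.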
Tests used:
Assay in all cases: NCI tumour cell line growth inhibition, 48 h
[1] = test system: HT29 colon
[2] = test system: SF-268 CNS
[3] = test system: SR leukemia
[4] = test system: SN12C renal
[5] = test system: IGROV1 ovarian
[6] = test system: MCF7 breast
[7] = test system: HS 578T breast
[8] = test system: MALME-3M melanoma
[9] = test system: DU-145 prostate
[10] = test system: HL-60(TB) leukemia
[11] = test system: BT-549 breast
[12] = test system: SF-539 CNS
[13] = test system: SK-OV-3 ovarian
[14] = test system: OVCAR-8 ovarian
[15] = test system: T-47D breast
[16] = test system: UACC-62 melanoma
[17] = test system: UO-31 renal
[18] = test system: LOX IMVI melanoma
[19] = test system: MDA-MB-231 breast
[20] = test system: NCI-H226 lung
[21] = test system: RXF 393 renal
[22] = test system: HOP-62 NSCLC
[23] = test system: MDA-MB-435
[24] = test system: 786-0 renal
[25] = test system: A498 renal
[26] = test system: OVCAR-3 ovarian
[27] = test system: ACHN renal
[28] = test system: UACC-257 melanoma
[29] = test system: M14 melanoma
[30] = test system: RPMI-8226 leukemia
[31] = test system: HOP-92 NSCLC
[32] = test system: PC-3 prostate
[33] = test system: NCI-H522 lung
[34] = test system: SK-MEL-5 melanoma
[35] = test system: NCI/ADR-RES ovarian
[36] = test system: NCI-H23 lung
[37] = test system: SNB-19 CNS
[38] = test system: KM12 colon
[39] = test system: CCRF-CEM leukemia
[40] = test system: SW-620 colon
[41] = test system: HCT-15 colon
[42] = test system: K-562 leukemia
[43] = test system: CAKI-1 renal
[44] = test system: TK-10 renal
[45] = test system: COLO 205 colon
[46] = test system: SK-MEL-2 melanoma
[47] = test system: A549 NSCLC
[48] = test system: HCC-2998 colon
[49] = test system: OVCAR-5 ovarian
[50] = test system: EKVX NSCLC
[51] = test system: NCI-H460 lung
[52] = test system: SK-MEL-28 melanoma
[53] = test system: U251 CNS
[54] = test system: HCT-116 colon
[55] = test system: OVCAR-4 ovarian
[56] = test system: SF-295 CNS
[57] = test system: SNB-75 CNS
[58] = test system: MOLT-4 leukemia

## O=C1c2cc(Br)ccc2-c2ccc3c4ccc5c6c(ccc(c7ccc1c2c73)c64)C(=O)c1cc(Br)ccc1-5
[1]
  TGI: > 100 µM
[2]
  TGI: > 100 µM
[3]
  TGI: > 100 µM
[4]
  TGI: > 100 µM
[5]
  TGI: > 100 µM
[6]
  TGI: > 100 µM
[7]
  TGI: > 100 µM
[8]
  TGI: > 100 µM
[9]
  TGI: > 100 µM
[10]
  TGI: > 100 µM
[11]
  TGI: > 100 µM
[12]
  TGI: > 100 µM
[13]
  TGI: > 100 µM
[14]
  TGI: > 100 µM
[15]
  TGI: > 100 µM
[16]
  TGI: > 100 µM
[17]
  TGI: > 100 µM
[18]
  TGI: > 100 µM
[19]
  TGI: > 100 µM
[20]
  TGI: > 100 µM
[21]
  TGI: > 100 µM
[22]
  TGI: > 100 µM
[23]
  TGI: > 100 µM
[24]
  TGI: > 100 µM
[25]
  TGI: > 100 µM
[26]
  TGI: > 100 µM
[27]
  TGI: > 100 µM
[28]
  TGI: > 100 µM
[29]
  TGI: > 100 µM
[30]
  TGI: > 100 µM
[31]
  TGI: > 100 µM
[32]
  TGI: > 100 µM
[33]
  TGI: > 100 µM
[34]
  TGI: > 100 µM
[35]
  TGI: > 100 µM
[36]
  TGI: > 100 µM
[37]
  TGI: > 100 µM
[38]
  TGI: > 100 µM
[39]
  TGI: > 100 µM
[40]
  TGI: > 100 µM
[41]
  TGI: > 100 µM
[42]
  TGI: > 100 µM
[43]
  TGI: > 100 µM
[44]
  TGI: > 100 µM
[45]
  TGI: > 100 µM
[46]
  TGI: > 100 µM
[47]
  TGI: > 100 µM
[48]
  TGI: > 100 µM
[49]
  TGI: > 100 µM
[50]
  TGI: > 100 µM
[51]
  TGI: > 100 µM
[52]
  TGI: > 100 µM
[53]
  TGI: > 100 µM
[54]
  TGI: > 100 µM

## Sc1cccc2cccnc12
[1]
  GI50: 0.918 µM
  TGI: 11.2 µM
[2]
  GI50: 1.35 µM
  TGI: 13.5 µM
[3]
  GI50: 0.28 µM
  TGI: > 56.1 µM
[4]
  GI50: 1.14 µM
  TGI: 15.1 µM
[5]
  GI50: 0.541 µM
  TGI: 12.6 µM
[6]
  GI50: 0.484 µM
  TGI: 11.6 µM
[7]
  GI50: 2.81 µM
  TGI: 16.4 µM
[55]
  GI50: 0.445 µM
  TGI: 12.7 µM
[8]
  GI50: 1.06 µM
  TGI: 14 µM
[9]
  GI50: 0.626 µM
  TGI: 15.9 µM
[10]
  GI50: 1.02 µM
  TGI: 7.21 µM
[11]
  GI50: 1.46 µM
  TGI: 12.4 µM
[56]
  GI50: 0.645 µM
  TGI: 12.8 µM
[12]
  GI50: 0.776 µM
  TGI: 12.9 µM
[13]
  GI50: 3.04 µM
  TGI: 13.8 µM
[14]
  GI50: 0.537 µM
  TGI: 15.3 µM
[15]
  GI50: 3.07 µM
  TGI: 12.3 µM
[16]
  GI50: 0.529 µM
  TGI: 7.25 µM
[17]
  GI50: 0.616 µM
  TGI: 11.9 µM
[18]
  GI50: 0.57 µM
  TGI: 11.1 µM
[19]
  GI50: 1.36 µM
  TGI: 14.7 µM
[20]
  GI50: 1.61 µM
  TGI: 8.83 µM
[21]
  GI50: 1.4 µM
  TGI: 8.28 µM
[22]
  GI50: 1.11 µM
  TGI: 12.3 µM
[23]
  GI50: 2.66 µM
  TGI: 20.5 µM
[24]
  GI50: 1.22 µM
  TGI: 14.3 µM
[25]
  GI50: 2.45 µM
  TGI: 8.8 µM
[26]
  GI50: 0.467 µM
  TGI: 8.01 µM
[27]
  GI50: 0.697 µM
  TGI: 12.8 µM
[28]
  GI50: 1.37 µM
  TGI: 12.3 µM
[29]
  GI50: 0.457 µM
  TGI: 6.09 µM
[30]
  GI50: 2.9 µM
  TGI: 30.3 µM
[31]
  GI50: 7.11 µM
  TGI: 20.5 µM
[32]
  GI50: 0.577 µM
  TGI: 13.1 µM
[33]
  GI50: 2.13 µM
  TGI: 5.66 µM
[34]
  GI50: 0.822 µM
  TGI: 4.25 µM
[35]
  GI50: 0.955 µM
  TGI: 9.21 µM
[36]
  GI50: 1.91 µM
  TGI: 16.8 µM
[37]
  GI50: 1.82 µM
  TGI: 17.3 µM
[38]
  GI50: 0.874 µM
  TGI: 12.1 µM
[39]
  GI50: 0.392 µM
  TGI: 24.5 µM
[40]
  GI50: 1.07 µM
  TGI: 16.2 µM
[41]
  GI50: 0.427 µM
  TGI: 14.4 µM
[42]
  GI50: 0.385 µM
  TGI: > 52 µM
[57]
  GI50: 2.72 µM
  TGI: 11.6 µM
[43]
  GI50: 1.67 µM
  TGI: 14.5 µM
[44]
  GI50: 4.16 µM
  TGI: 15.6 µM
[45]
  GI50: 2.32 µM
  TGI: 9.38 µM
[46]
  GI50: 2.58 µM
  TGI: 15.3 µM
[47]
  GI50: 0.497 µM
  TGI: 11.5 µM
[48]
  GI50: 3.49 µM
  TGI: 16.2 µM
[49]
  GI50: 4.1 µM
  TGI: 17.7 µM
[50]
  GI50: 1.31 µM
  TGI: 12.9 µM
[51]
  GI50: 0.389 µM
  TGI: 6.23 µM
[52]
  GI50: 1.15 µM
  TGI: 16.2 µM
[53]
  GI50: 0.598 µM
  TGI: 13.9 µM
[54]
  GI50: 0.411 µM
  TGI: 7.8 µM
[58]
  GI50: 0.55 µM
  TGI: 19.7 µM
